# Test results published in article PMC4965013, “Open Source Drug Discovery with the Malaria Box Compound Collection for Neglected Diseases and Beyond” (PLoS Pathogens, 2016).
# What was measured:
# [1] = tested on: P. falciparum 3D7 trophozoites; assay: Metabolomic fingerprint profiling LC-MS; type: cell-based, Plasmodium falciparum; set-up: UDP-D-glucose / ADP-D-glucose: unit not given here; settings: for Acetyllysine / N-acetyl-L-ornithine / N-carbamoyl-L-aspartate / NADPH / dAMP / dCMP / dTDP / dTMP / dTTP / dihydroorotate / orotate / DLH / DLS/SDL/SID / PD / PEE / PVNF / 3-phosphoglycerate / ADP-D-glucose / ATP / CDP / D-sedoheptulose-1/7-phosphate / FAD / GMP / NAD+ / NADP+ / Octoluse Bisphosphate / Pyroglutamic acid / UDP-D-glucose / UDP-D-glucuronate / UDP-N-acetyl-glucosamine / UDP / UMP / UTP / a-ketoglutarate / citrate/isocitrate / cytidine / dATP / dGMP/AMP / fumarate / glucose-1/6-phosphate / glycerate / guanine / guanosine / hypoxanthine / indole / inosine / nicotinate / ornithine / phosphoenolpyruvate / pyruvate / ribose-phosphate / sarcosine/alanine / sn-glycerol-3-phosphate / succinate/methylmalonic acid / uridine / xanthosine: S2 Table Metabolomics; for Acetyllysine: metabolite Acetyllysine; for N-acetyl-L-ornithine: metabolite N-acetyl-L-ornithine; for N-carbamoyl-L-aspartate: metabolite N-carbamoyl-L-aspartate; for NADPH: metabolite NADPH; for dAMP: metabolite dAMP; for dCMP: metabolite dCMP; for dTDP: metabolite dTDP; for dTMP: metabolite dTMP; for dTTP: metabolite dTTP; for dihydroorotate: metabolite dihydroorotate; for orotate: metabolite orotate; for DLH: peptide DLH; for DLS/SDL/SID: peptide DLS/SDL/SID; for PD: peptide PD; for PEE: peptide PEE; for PVNF: peptide PVNF; for 3-phosphoglycerate: metabolite 3-phosphoglycerate; for ADP-D-glucose: metabolite ADP-D-glucose; for ATP: metabolite ATP; for CDP: metabolite CDP; for CDP / D-sedoheptulose-1/7-phosphate / GMP / Octoluse Bisphosphate / UDP / UMP / UTP / citrate/isocitrate / dGMP/AMP / fumarate / glucose-1/6-phosphate / glycerate / guanine / guanosine / inosine / pyruvate / sarcosine/alanine / succinate/methylmalonic acid / uridine / xanthosine: change in metabolite level after compound treatment; for D-sedoheptulose-1/7-phosphate: metabolite D-sedoheptulose-1/7-phosphate; for FAD: metabolite FAD; for GMP: metabolite GMP; for NAD+: metabolite NAD+; for NADP+: metabolite NADP+; for Octoluse Bisphosphate: metabolite Octoluse Bisphosphate; for Pyroglutamic acid: metabolite Pyroglutamic acid; for UDP-D-glucose: metabolite UDP-D-glucose; for UDP-D-glucuronate: metabolite UDP-D-glucuronate; for UDP-N-acetyl-glucosamine: metabolite UDP-N-acetyl-glucosamine; for UDP: metabolite UDP; for UMP: metabolite UMP; for UTP: metabolite UTP; for a-ketoglutarate: metabolite a-ketoglutarate; for citrate/isocitrate: metabolite citrate/isocitrate; for cytidine: metabolite cytidine; for dATP: metabolite dATP; for dGMP/AMP: metabolite dGMP/AMP; for fumarate: metabolite fumarate; for glucose-1/6-phosphate: metabolite glucose-1/6-phosphate; for glycerate: metabolite glycerate; for guanine: metabolite guanine; for guanosine: metabolite guanosine; for hypoxanthine: metabolite hypoxanthine; for indole: metabolite indole; for inosine: metabolite inosine; for 2_3-Diphosphoglyceric acid / 4-phosphopantothenate / 6-phospho-D-gluconate / FMN / IMP / Pyrophosphate / Sedoheptoluse bisphosphate / cyclic-AMP / glutathione disulfide / lactate / myo-inositol: metabolite level change after treatment; for nicotinate: metabolite nicotinate; for ornithine: metabolite ornithine; for phosphoenolpyruvate: metabolite phosphoenolpyruvate; for pyruvate: metabolite pyruvate; for ribose-phosphate: metabolite ribose-phosphate; for sarcosine/alanine: metabolite sarcosine/alanine; for sn-glycerol-3-phosphate: metabolite sn-glycerol-3-phosphate; for succinate/methylmalonic acid: metabolite succinate/methylmalonic acid; for uridine: metabolite uridine; for xanthosine: metabolite xanthosine
# P. falciparum = assay: EC50 listed in S2 Table Metabolomics (used to set the concentration tested); type: cell-based; settings: Plasmodium falciparum; EC50 used for Factor_XEC50 in metabolomics; read-out: EC50_nM
smiles,measurement,setting,value
CCOC(=O)c1cn(CC)c2cc(N3CCCCC3)c(F)cc2c1=O [MMV665827],Acetyllysine,[1],0.6167
same,N-acetyl-L-ornithine,[1],0.5501
same,N-carbamoyl-L-aspartate,[1],4.792
same,NADPH,[1],0.6598
same,dAMP,[1],0.7737
same,dCMP,[1],1.737
same,dTDP,[1],0.1707
same,dTMP,[1],0.8282
same,dTTP,[1],0.03923
same,dihydroorotate,[1],4.825
same,orotate,[1],-0.5812
same,DLH,[1],-0.7896
same,DLS/SDL/SID,[1],0.01567
same,PD,[1],0.7077
same,PEE,[1],-1.44
same,PVNF,[1],-0.1312
same,3-phosphoglycerate,[1],-0.02186
same,ADP-D-glucose,[1],0.2064
same,ATP,[1],0.6896
same,CDP,[1],0.1387
same,D-sedoheptulose-1/7-phosphate,[1],0.4202
same,FAD,[1],0.7349
same,GMP,[1],-0.6725
same,NAD+,[1],0.4401
same,NADP+,[1],0.5706
same,Octoluse Bisphosphate,[1],0.2411
same,Pyroglutamic acid,[1],-0.2796
same,UDP-D-glucose,[1],0.1953
same,UDP-D-glucuronate,[1],-0.1324
same,UDP-N-acetyl-glucosamine,[1],0.2567
same,UDP,[1],0.4721
same,UMP,[1],-1.447
same,UTP,[1],-1.04
same,a-ketoglutarate,[1],-0.2461
same,citrate/isocitrate,[1],-1.463
same,cytidine,[1],0.4678
same,dATP,[1],0.6493
same,dGMP/AMP,[1],0.07314
same,fumarate,[1],-0.2241
same,glucose-1/6-phosphate,[1],1.8807
same,glycerate,[1],-0.09674
same,guanine,[1],1.02
same,guanosine,[1],0.7998
same,hypoxanthine,[1],-0.3352
same,indole,[1],-0.0107
same,inosine,[1],0.5749
same,2_3-Diphosphoglyceric acid,[1],0.1079
same,4-phosphopantothenate,[1],0.2143
same,6-phospho-D-gluconate,[1],0.3355
same,FMN,[1],0.4894
same,IMP,[1],0.7697
same,Pyrophosphate,[1],-1.117
same,Sedoheptoluse bisphosphate,[1],0.6312
same,cyclic-AMP,[1],0.6768
same,glutathione disulfide,[1],0.6276
same,lactate,[1],1.255
same,myo-inositol,[1],2.498
same,nicotinate,[1],-0.197
same,ornithine,[1],0.8346
same,phosphoenolpyruvate,[1],-0.2956
same,pyruvate,[1],0.5345
same,ribose-phosphate,[1],0.3041
same,sarcosine/alanine,[1],0.4367
same,sn-glycerol-3-phosphate,[1],0.2478
same,succinate/methylmalonic acid,[1],-0.3191
same,uridine,[1],0.6011
same,xanthosine,[1],-0.8841
same,EC50,P. falciparum,119 nM
O=C(CSc1nccn2nc(-c3ccccc3)cc12)Nc1cc(C(F)(F)F)ccc1Cl [MMV396678],Acetyllysine,[1],-0.4877
same,N-acetyl-L-ornithine,[1],-0.4938
same,N-carbamoyl-L-aspartate,[1],3.602
same,NADPH,[1],-0.3509
same,dAMP,[1],-2.425
same,dCMP,[1],-0.1067
same,dTDP,[1],-0.8621
same,dTMP,[1],-0.7966
same,dTTP,[1],-1.266
same,dihydroorotate,[1],4.597
same,orotate,[1],0.259
same,DLH,[1],-0.3174
same,DLS/SDL/SID,[1],-0.3424
same,PD,[1],-0.07917
same,PEE,[1],-0.441
same,PVNF,[1],-2.237
same,3-phosphoglycerate,[1],-0.1451
same,ADP-D-glucose,[1],-0.07756
same,ATP,[1],0.1007
same,CDP,[1],-0.7494
same,D-sedoheptulose-1/7-phosphate,[1],-0.4438
same,FAD,[1],-0.03171
same,GMP,[1],0.3554
same,NAD+,[1],0.01671
same,NADP+,[1],-0.09002
same,Octoluse Bisphosphate,[1],-0.2508
same,Pyroglutamic acid,[1],0.3744
same,UDP-D-glucose,[1],-0.1169
same,UDP-D-glucuronate,[1],-0.3093
same,UDP-N-acetyl-glucosamine,[1],-0.3205
same,UDP,[1],-0.9356
same,UMP,[1],-0.7589
same,UTP,[1],-1.3566
same,a-ketoglutarate,[1],0.2592
same,citrate/isocitrate,[1],0.4562
same,cytidine,[1],0.4629
same,dATP,[1],0.2611
same,dGMP/AMP,[1],-0.1351
same,fumarate,[1],0.07736
same,glucose-1/6-phosphate,[1],0.1714
same,glycerate,[1],0.291
same,guanine,[1],0.4817
same,guanosine,[1],0.7569
same,hypoxanthine,[1],0.5204
same,indole,[1],0.3835
same,inosine,[1],0.4193
same,2_3-Diphosphoglyceric acid,[1],-0.1645
same,4-phosphopantothenate,[1],-0.3586
same,6-phospho-D-gluconate,[1],-0.1209
same,FMN,[1],-0.2869
same,IMP,[1],0.1606
same,Pyrophosphate,[1],-0.1573
same,Sedoheptoluse bisphosphate,[1],-0.2556
same,cyclic-AMP,[1],-0.1203
same,glutathione disulfide,[1],-0.08653
same,lactate,[1],0.1751
same,myo-inositol,[1],-0.2117
same,nicotinate,[1],0.4349
same,ornithine,[1],0.266
same,phosphoenolpyruvate,[1],0.01446
same,pyruvate,[1],0.3754
same,ribose-phosphate,[1],-0.04013
same,sarcosine/alanine,[1],-0.09301
same,sn-glycerol-3-phosphate,[1],-0.3771
same,succinate/methylmalonic acid,[1],0.03069
same,uridine,[1],0.1532
same,xanthosine,[1],0.489
